This experiment concerns the target T1, human chymase (Homo sapiens, UniProt P23946).
T1 sequence (P23946 22-247): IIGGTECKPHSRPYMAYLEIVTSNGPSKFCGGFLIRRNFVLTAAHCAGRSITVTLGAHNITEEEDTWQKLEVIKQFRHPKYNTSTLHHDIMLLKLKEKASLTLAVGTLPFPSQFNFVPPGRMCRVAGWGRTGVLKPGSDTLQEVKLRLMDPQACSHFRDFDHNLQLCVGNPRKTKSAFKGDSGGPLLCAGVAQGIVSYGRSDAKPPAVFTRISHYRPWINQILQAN
Nature of the experiment: Chymase inhibitory activity (Suc-Ala-Ala-Pro-Phe-pNA substrate, absorption 405 nm). The class given is biochemical. As to conditions: purified human chymase, 30 minutes at 37 °C preincubation, substrate 0.5 mM. The procedure:
Compound (I) was dissolved in dimethylsulfoxide (DMSO) at 10^-2 M. Concentration of DMSO for activity measurement was 1 %.
Compound (I) dissolved in DMSO and purified human chymase (Takai et al., Clinica Chimica Acta 265, 1997, 13-20) were added to a buffer (0.1M Tris-HCl, 1.8M NaCl pH8.0). After the mixture was treated for 30 minutes at 37 °C, Suc-Ala-Ala-Pro-Phe-pNA (BACHEM Feinchemikalien AG) was added at 0.5 mM as a substrate and the mixture was enzymatically reacted at 37 °C.
After the reaction, the absorption intensity (405 nm) of the solution was measured to calculate the inhibitory rate.
What is called IC50 is the concentration needed to halve the response being measured. Read a low IC50 as higher potency. As to `CC(=O)O[C@H]1[C@H](Cc2ccccc2)C(=O)N1C(=O)NC(C)c1ccccc1` (stereo partly shown) [Compound I-36], the IC50 worked out at 4.2 nM.
`C[C@@H](NC(=O)N1C(=O)[C@@H](Cc2ccccc2)[C@@H]1Oc1ccc(C(=O)N(C)CCN(C)C)cc1)c1ccccc1` [Compound I-38] gave a half-inhibitory concentration (IC50) of 2.2 nM.
The figure for `C[C@@H](NC(=O)N1C(=O)[C@@H](Cc2ccccc2)[C@@H]1Oc1ccc(C(=O)N2CCC[C@@H]2C)cc1)c1ccccc1` [Compound I-41] is 1.9 nM.
Regarding `C[C@@H](NC(=O)N1C(=O)[C@@H](Cc2ccccc2)[C@@H]1Oc1ccc(C(=O)N2CCOCC2)cc1)c1ccccc1` [Compound I-43], the IC50 stood at 1.08 nM.
The figure for `C=CCNC(=O)c1ccc(O[C@H]2[C@H](Cc3ccccc3)C(=O)N2C(=O)N[C@H](C)c2ccccc2)cc1` [Compound I-44] is 3.8 nM; for `C[C@@H](NC(=O)N1C(=O)[C@@H](Cc2ccccc2)[C@@H]1Oc1ccc(C(=O)NCc2ccccc2)cc1)c1ccccc1` [Compound I-45] it is 20 nM.
As for `C[C@@H](NC(=O)N1C(=O)[C@@H](Cc2ccccc2)[C@@H]1Oc1ccc(C(=O)Nc2ccccc2)cc1)c1ccccc1` [Compound I-46], half-maximal inhibition (IC50) required 31 nM.
Compound `C[C@@H](NC(=O)N1C(=O)[C@@H](Cc2ccccc2)[C@@H]1Oc1ccc(C(=O)OCCN(C)C)cc1)c1ccccc1` [Compound I-47] returned a half-maximal inhibitory concentration (IC50) of 3 nM.
Consider `C[C@@H](NC(=O)N1C(=O)[C@@H](Cc2ccccc2)[C@@H]1Oc1ccc(CC(=O)O)cc1)c1ccccc1` [Compound I-49], for which the concentration for half-maximal inhibition (IC50) came out at 4.3 nM.
Compound `C[C@@H](NC(=O)N1C(=O)[C@@H](Cc2ccccc2)[C@@H]1Oc1ccc(CC(=O)N2CCN(C)CC2)cc1)c1ccccc1` [Compound I-50] came in with an IC50 of 1.13 nM.
`C[C@@H](NC(=O)N1C(=O)[C@@H](Cc2ccccc2)[C@@H]1Oc1ccc(CC(=O)OCCN(C)C)cc1)c1ccccc1` [Compound I-51] displayed a concentration for half-maximal inhibition (IC50) of 30 nM.
`C[C@@H](NC(=O)N1C(=O)[C@@H](Cc2ccccc2)[C@@H]1Oc1ccc(/C=C/C(=O)O)cc1)c1ccccc1` [Compound I-52] returned an IC50 of 5.2 nM.
The value for `C[C@@H](NC(=O)N1C(=O)[C@@H](Cc2ccccc2)[C@@H]1Oc1ccc(/C=C/C(=O)N2CCN(C)CC2)cc1)c1ccccc1` [Compound I-54] was 3.5 nM; that for `C[C@@H](NC(=O)N1C(=O)[C@@H](Cc2ccccc2)[C@@H]1Oc1cccc(C(=O)O)c1)c1ccccc1` [Compound I-55] was 17 nM; that for `C[C@@H](NC(=O)N1C(=O)[C@@H](Cc2ccccc2)[C@@H]1Oc1cccc(C(=O)N2CCN(C)CC2)c1)c1ccccc1` [Compound I-56] was 2.95 nM.
In the case of `C[C@@H](NC(=O)N1C(=O)[C@@H](Cc2ccccc2)[C@@H]1Sc1ccc(C(=O)O)cc1)c1ccccc1` [Compound I-57], half-maximal inhibition (IC50) was put at 24 nM.
`C[C@@H](NC(=O)N1C(=O)[C@@H](Cc2ccccc2)[C@@H]1Sc1ccc(C(=O)N2CCN(C)CC2)cc1)c1ccccc1` [Compound I-58] yielded an IC50 of 5.7 nM.
The figure for `C[C@@H](NC(=O)N1C(=O)[C@@H](Cc2ccccc2)[C@H]1Oc1ccc(C(=O)N2CCOCC2)cc1)c1ccccc1` [Compound I-67] is 0.18 nM.
For the compound `C[C@@H](NC(=O)N1C(=O)[C@@H](Cc2ccccc2)[C@H]1Oc1ccc(C(=O)NCc2ccccc2F)cc1)c1ccccc1` [Compound I-68], the IC50 stood at 0.68 nM.
The figure for `C[C@@H](NC(=O)N1C(=O)[C@@H](Cc2ccccc2)[C@H]1Oc1ccc(C(=O)OCc2ccccc2)cc1)c1ccccc1` [Compound I-69] is 16.2 nM; for `CCN(Cc1ccccc1)C(=O)c1ccc(O[C@@H]2[C@H](Cc3ccccc3)C(=O)N2C(=O)N[C@H](C)c2ccccc2)cc1` [Compound I-70] it is 1.28 nM; for `CC(OC(=O)c1ccc(O[C@@H]2[C@H](Cc3ccccc3)C(=O)N2C(=O)N[C@H](C)c2ccccc2)cc1)c1ccccc1` (stereo partly shown) [Compound I-71] it is 19 nM.
On to `C[C@@H](NC(=O)N1C(=O)[C@@H](Cc2ccccc2)[C@H]1Oc1ccc(C(=O)NNc2ccccc2)cc1)c1ccccc1` [Compound I-73], for which the half-inhibitory concentration (IC50) is 0.92 nM.
`C[C@@H](NC(=O)N1C(=O)[C@@H](Cc2ccccc2)[C@H]1Oc1ccc(C(=O)N[C@@H](Cc2ccccc2)C(=O)OCc2ccccc2)cc1)c1ccccc1` [Compound I-74] yielded a half-inhibitory concentration (IC50) of 8.6 nM.
With `C[C@@H](NC(=O)N1C(=O)[C@@H](Cc2ccccc2)[C@H]1Oc1ccc(C(=O)OCc2ccncc2)cc1)c1ccccc1` [Compound I-75], 1.2 nM corresponded to half-maximal inhibition (IC50).
The value for `C[C@@H](NC(=O)N1C(=O)[C@@H](Cc2ccccc2)[C@H]1Oc1ccc(C(=O)N2CCN(Cc3ccc4c(c3)OCO4)CC2)cc1)c1ccccc1` [Compound I-76] was 2.4 nM; that for `C[C@@H](NC(=O)N1C(=O)[C@@H](Cc2ccccc2)[C@H]1Oc1ccc(C(=O)N[C@@H](Cc2ccccc2)C(=O)O)cc1)c1ccccc1` [Compound I-77] was 0.26 nM.
The value for `C[C@H](NC(=O)N1C(=O)[C@@H](Cc2ccccc2)[C@H]1Oc1ccc(C(=O)N2CCN(C)CC2)cc1)c1ccccc1` [Compound I-81] was 13 nM; that for `C[C@@H](NC(=O)N1C(=O)[C@@H](Cc2ccccc2)[C@H]1Sc1ccccc1)c1ccccc1` [Compound I-85] was 2.4 nM.
`C[C@@H](NC(=O)N1C(=O)[C@H](Cc2ccccc2)[C@H]1Oc1ccc(C(=O)N2CCN(C)CC2)cc1)c1ccccc1` [Compound I-87] displayed an IC50 of 0.8 nM.
The value for `C[C@H](NC(=O)N1C(=O)[C@H](Cc2ccccc2)[C@H]1Oc1ccc(C(=O)N2CCN(C)CC2)cc1)c1ccccc1` [Compound I-89] was 18.5 nM; that for `CC(NC(=O)N1C(=O)[C@@H](Cc2ccccc2)[C@@H]1Oc1ccc(C(N)=O)cc1)c1ccccc1` (stereo partly shown) [Compound I-95] was 16 nM; that for `COc1ccccc1C[C@@H]1C(=O)N(C(=O)N[C@H](C)c2ccccc2)[C@H]1Oc1ccc(C(=O)O)cc1` [Compound I-102] was 1 nM.
`COc1ccccc1C[C@@H]1C(=O)N(C(=O)N[C@H](C)c2ccccc2)[C@H]1Oc1ccc(C(=O)N2CCN(C)CC2)cc1` [Compound I-104] gave a half-maximal inhibitory concentration (IC50) of 0.19 nM.
The figure for `COc1ccccc1C[C@@H]1C(=O)N(C(=O)N[C@H](C)c2ccccc2)[C@H]1Oc1ccc(C(=O)OCc2ccncc2)cc1` [Compound I-105] is 2.8 nM.
`COc1ccccc1C[C@@H]1C(=O)N(C(=O)N[C@H](C)c2ccccc2)[C@H]1Oc1ccc(C(=O)N2CCN(c3ncccn3)CC2)cc1` [Compound I-107]: the IC50 was 0.68 nM.
Compound `COc1ccccc1C[C@@H]1C(=O)N(C(=O)N[C@H](C)c2ccccc2)[C@H]1Oc1ccc(C(=O)N2CCN(C3CCCCC3)CC2)cc1` [Compound I-108] registered a 50% inhibitory concentration (IC50) of 0.48 nM.
For the compound `COc1ccccc1C[C@@H]1C(=O)N(C(=O)N[C@@H](C)c2ccccc2)[C@H]1Oc1ccc(C(=O)N2CCN(C)CC2)cc1` [Compound I-111], the IC50 turned out to be 11 nM.
The value for `CC[C@@H](NC(=O)N1C(=O)[C@@H](Cc2ccccc2OC)[C@@H]1Oc1ccc(C(=O)O)cc1)c1ccccc1` [Compound I-113] was 0.5 nM; that for `CC[C@H](NC(=O)N1C(=O)[C@@H](Cc2ccccc2OC)[C@@H]1Oc1ccc(C(=O)O)cc1)c1ccccc1` [Compound I-115] was 18 nM; that for `CCCC(NC(=O)N1C(=O)[C@@H](Cc2ccccc2OC)[C@@H]1Oc1ccc(C(=O)N2CCC(N3CCCCC3)CC2)cc1)c1ccc2c(c1)OCO2` (stereo partly shown) [Compound I-121] was 0.29 nM.
The figure for `COc1ccccc1C[C@@H]1C(=O)N(C(=O)NC2(c3ccccc3)CC2)[C@H]1Oc1ccc(C(=O)O)cc1` [Compound I-125] is 19 nM; for `COc1ccccc1C[C@@H]1C(=O)N(C(=O)NC(c2ccccc2)c2ccccc2)[C@H]1Oc1ccc(C(=O)O)cc1` [Compound I-126] it is 2.95 nM.
Consider `COc1ccccc1C[C@@H]1C(=O)N(C(=O)N[C@H](C)c2ccccc2)[C@@H]1Oc1ccc(C(=O)N2CCN(C)CC2)cc1` [Compound I-129], for which the IC50 is 1.02 nM.
In the case of `COc1ccccc1C[C@@H]1C(=O)N(C(=O)N[C@@H](C)c2ccccc2)[C@@H]1Oc1ccc(C(=O)O)cc1` [Compound I-130], the IC50 turned out to be 1.18 nM.
As to `COc1ccccc1C[C@@H]1C(=O)N(C(=O)N[C@@H](C)c2ccccc2)[C@@H]1Oc1ccc(C(=O)N2CCN(C)CC2)cc1` [Compound I-132], the half-inhibitory concentration (IC50) was 0.25 nM.
The compound `COc1ccccc1C[C@@H]1C(=O)N(C(=O)N[C@@H](C)c2ccccc2)[C@@H]1Oc1ccc(C(=O)N2CCN(C)CC2)cc1` [Compound I-134] displayed an IC50 of 0.1 nM.
Turning to `CCOc1ccccc1C[C@@H]1C(=O)N(C(=O)N[C@H](CC)c2ccccc2)[C@H]1Oc1ccc(C(=O)O)cc1` [Compound I-135], the half-maximal inhibitory concentration (IC50) was 2.1 nM.
The value for `CCOc1ccccc1C[C@@H]1C(=O)N(C(=O)N[C@H](CC)c2ccccc2)[C@H]1Oc1ccc(C(=O)N2CCN(C3CCCCC3)CC2)cc1` [Compound I-137] was 3.4 nM.
For the compound `CCOc1ccccc1C[C@@H]1C(=O)N(C(=O)NC(c2ccccc2)c2ccccc2)[C@H]1Oc1ccc(C(=O)N2CCN(C3CCCCC3)CC2)cc1` [Compound I-145], 10.8 nM corresponded to half-maximal inhibition (IC50).
For the compound `CCOc1ccccc1C[C@@H]1C(=O)N(C(=O)NC(c2ccccc2)c2ccccc2)[C@H]1Oc1ccc(C(=O)N2CCOCC2)cc1` [Compound I-148], the IC50 amounted to 0.55 nM.
The figure for `CCOc1ccccc1C[C@@H]1C(=O)N(C(=O)NC(c2ccccc2)c2ccccc2)[C@H]1Oc1ccc(C(=O)OCCN2CCOCC2)cc1` [Compound I-150] is 5.4 nM.

The values above are taken from patent EP1099690A1, “MONOCYCLIC $g(b)-LACTAM COMPOUNDS AND CHYMASE INHIBITORS CONTAINING THE SAME” (SHIONOGI & CO., LTD., priority 1998, dated 2000).
